Reference: BindingDB's records for doi:10.1111/cbdd.12841 (Zhejiang University of Technology, 2017)

What was measured:
[1] = target: T1, Amine oxidase [flavin-containing] A (Homo sapiens, UniProt P21397); experiment: In vitro MAO-A/B Inhibition Assay
T1 sequence (P21397 whole entry): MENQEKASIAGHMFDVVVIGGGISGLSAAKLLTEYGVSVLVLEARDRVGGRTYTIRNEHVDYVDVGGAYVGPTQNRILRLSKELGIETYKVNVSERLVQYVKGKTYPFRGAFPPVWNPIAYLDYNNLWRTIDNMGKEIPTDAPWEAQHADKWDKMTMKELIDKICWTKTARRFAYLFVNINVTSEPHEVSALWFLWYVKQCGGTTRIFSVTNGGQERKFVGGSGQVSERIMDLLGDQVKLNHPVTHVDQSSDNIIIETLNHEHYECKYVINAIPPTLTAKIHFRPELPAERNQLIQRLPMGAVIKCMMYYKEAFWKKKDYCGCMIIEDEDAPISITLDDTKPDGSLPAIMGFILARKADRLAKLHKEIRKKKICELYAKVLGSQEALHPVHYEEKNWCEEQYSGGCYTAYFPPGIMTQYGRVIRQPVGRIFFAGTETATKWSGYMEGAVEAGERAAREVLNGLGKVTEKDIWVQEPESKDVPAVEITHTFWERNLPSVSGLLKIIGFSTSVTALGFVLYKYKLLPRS
Description: (§1) The inhibitory activities of flavones were determined in vitro by using fluorescent probe method following the general procedure described in the literature. [Li et al., Nat. Commun., 5:3276]

[2] = target: T2, Amine oxidase [flavin-containing] B (Homo sapiens, UniProt P27338); experiment: In vitro MAO-A/B Inhibition Assay
T2 sequence (P27338 whole entry): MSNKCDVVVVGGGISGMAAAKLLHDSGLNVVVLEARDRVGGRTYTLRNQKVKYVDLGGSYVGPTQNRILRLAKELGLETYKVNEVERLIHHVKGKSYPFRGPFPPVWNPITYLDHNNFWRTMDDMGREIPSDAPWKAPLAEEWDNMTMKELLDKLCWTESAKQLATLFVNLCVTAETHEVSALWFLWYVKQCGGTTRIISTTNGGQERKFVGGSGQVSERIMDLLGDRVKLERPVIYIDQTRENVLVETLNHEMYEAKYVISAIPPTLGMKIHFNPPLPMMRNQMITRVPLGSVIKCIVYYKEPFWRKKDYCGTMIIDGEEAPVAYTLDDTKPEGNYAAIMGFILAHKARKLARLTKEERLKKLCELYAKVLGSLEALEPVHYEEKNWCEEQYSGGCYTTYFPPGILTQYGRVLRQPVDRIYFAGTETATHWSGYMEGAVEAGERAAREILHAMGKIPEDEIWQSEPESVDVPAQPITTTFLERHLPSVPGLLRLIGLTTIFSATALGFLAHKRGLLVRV
Description: as §1

Compound	IC50 [1] [µM]	IC50 [2] [µM]
O=c1cc(-c2ccccc2)oc2ccc(Cn3nncc3CNc3ccc(Cl)cc3)cc12 [6-((5-(((4-chlorophenyl)amino)methyl)-1H-1,2,3-triazol-1-yl)methyl)-2-phenyl-4H-chromen-4-one (Az2k1)]	334	176
O=C(CCc1cn(Cc2ccc3oc(-c4ccccc4)cc(=O)c3c2)nn1)Nc1ccc(F)cc1 [N-(4-fluorophenyl)-3-(1-((4-oxo-2-phenyl-4H-chromen-6-yl)methyl)-1H-1,2,3-triazol-4-yl)propanamide (Az1k6)]	738	134
Cc1ccc(C(=O)NCc2cn(Cc3ccc4oc(-c5ccc(Cl)cc5)cc(=O)c4c3)nn2)cc1 [N-((1-((2-(4-chlorophenyl)-4-oxo-4H-chromen-6-yl)methyl)-1H-1,2,3-triazol-4-yl)methyl)-4-methylbenzamide (Az2k2)]	541	86
O=C(NCc1cn(Cc2ccc3oc(-c4ccccc4)cc(=O)c3c2)nn1)c1ccccc1 [N-((1-((4-oxo-2-phenyl-4H-chromen-6-yl)methyl)-1H-1,2,3-triazol-4-yl)methyl)benzamide (Az1k1)]	184	111
